The assay has as its target T1, FKBP12 and mTOR (Homo sapiens, UniProt P42345+P62942).
T1 construct: host or cells: HeLa cells
The experiment in a line: Fluoppi analysis: induction of FKBP12-mTOR complex formation in transfected HeLa cells. The conditions noted are these: for Foci intensity: raw data, one replicate per line; for PPI-inducing (binding enhancing) activity between FKBP12 and mTOR compared with rapamycin (1), in words / EC50: Fluoppi; for EC50: HeLa cells, 1 h treatment, three independent biological replicates, read-out: EC50, induction of the formation of FKBP-mTOR complex. Type of assay: cell-based. The protocol: Fluoppi harbours a tetrameric fluorescent protein hAG tag and an oligomeric assembly helper Ash tag to create detectable fluorescent foci in cells when there are interactions between two proteins fused to each tag[32].
HeLa cells were maintained in DMEM (Fujifilm Wako, Osaka, Japan) supplemented with 10% FBS (Thermo Fisher Scientific, MA, USA) and 1% of Penicillin-Streptomycin (Thermo Fisher Scientific) in a humidified incubator with 5% CO2 at 37 °C. Harvested cells were plated at 1 × 10^6 cells/well in 6-well plate and incubated for 6 h. Then each 1.25 µg of phAG-mTOR and pAsh-FKBP12 (Medical and Biological Laboratories Co., Ltd., Aichi, Japan) was co-transfected with Lipofectamine 2000 reagent (Thermo Fisher Scientific) overnight. Next day, transfected cells were harvested and seeded in 384-well optical-bottom microplate (PerkinElmer, MA, USA) at a density of 3000 cells/well. After the 24 h incubation at 37 °C, cells were treated with different concentrations of compounds for 1 h. Cells were then fixed with 4% paraformaldehyde and stained with 1 µg/ml of Hoechst33342 (Thermo Fisher Scientific). Cell images of 9 visual fields/well were acquired with ×20 objective lens in Opera Phenix High-Content Screening System (PerkinElmer) and analysed by Harmony4.9 software (PerkinElmer). Because protein-protein interactions are quantified by measuring the aggregation of fluorescent elements in foci, fluorescent intensity in foci was normalised by total fluorescent intensity in each cell. EC50 values were calculated using TIBCO Spotfire 10.3 software (PerkinElmer).

SMILES strings stand for the structures. Several values for one entry are separate records, joined by “and”; a condition that tells them apart may be missing. Equal values may be shown once.

For orientation: EC50 means the midpoint of the concentration-response curve.

T1 sequence (P42345 2025-2114 limits assumed): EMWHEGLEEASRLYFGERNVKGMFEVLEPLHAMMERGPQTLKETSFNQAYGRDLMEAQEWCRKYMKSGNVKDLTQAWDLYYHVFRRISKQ
T1 sequence (P62942 whole entry): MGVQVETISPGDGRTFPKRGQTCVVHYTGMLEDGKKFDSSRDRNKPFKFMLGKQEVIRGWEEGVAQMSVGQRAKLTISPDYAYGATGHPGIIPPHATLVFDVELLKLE

Turning to `CO[C@H]1C[C@@H]2CC[C@@H](C)[C@@](O)(O2)C(=O)C(=O)N2CCCC[C@H]2C(=O)O[C@H]([C@H](C)C[C@@H]2CC[C@@H](O)[C@H](OC)C2)CC(=O)[C@H](C)/C=C(\C)[C@@H](O)[C@@H](OC)C(=O)[C@H](C)C[C@H](C)/C=C/C=C/C=C/1C` [Compound 1, rapamycin, reference compound], the Foci intensity is 0.01161 and 0.0103 and 0.03088 (conc 9.53674e-5 uM); 0.00895 and 0.02271 and 0.02107 (conc 0.000190735 uM); 0.01544 and 0.008548 and 0.02969 (conc 0.00038147 uM); 0.009653 and 0.01526 and 0.05621 (conc 0.000762939 uM); 0.01804 and 0.005306 and 0.005698 (conc 0.00152588 uM); 0.0369 and 0.03402 and 0.3176 (conc 0.00305176 uM). Also, the Foci intensity reads like this: (conc 0.00610352 uM) 0.06499 and 0.06076 and 0.02459; (conc 0.012207 uM) 0.2364 and 0.2753 and 0.5339; (conc 0.0244141 uM) 0.345 and 0.3003 and 0.3827; (conc 0.0488281 uM) 0.3632 and 0.2888 and 0.4741; (conc 0.0976562 uM) 0.3612 and 0.3367 and 0.3536; (conc 0.195312 uM) 0.3566 and 0.4014 and 0.5261. The Foci intensity is 0.3241 and 0.3575 and 0.3236 (conc 0.390625 uM); 0.4221 and 0.4622 and 0.4598 (conc 0.78125 uM); 0.3074 and 0.3503 and 0.4064 (conc 1.5625 uM); 0.4223 and 0.3831 and 0.4233 (conc 3.125 uM); 0.3328 and 0.3828 and 0.4116 (conc 6.25 uM); 0.2834 and 0.3194 and 0.3771 (conc 12.5 uM). The Foci intensity (conc 25 uM) is 0.3113 and 0.345 and 0.3681; the Foci intensity (conc 50 uM) is 0.2989 and 0.4553 and 0.5427.
In the case of `CO[C@H]1C[C@@H]2CC[C@@H](C)[C@@](O)(O2)C(=O)C(=O)N2CCCC[C@H]2C(=O)O[C@H]([C@H](C)C[C@@H]2CC[C@@H](O)[C@H](OC)C2)CC(=O)[C@H](C)/C=C(\C)[C@@H](O)CC(=O)[C@H](C)C[C@H](C)/C=C/C=C(C)/C=C/1C` [Compound 2, 27-demethoxy-19-methyl rapamycin], the “PPI-inducing (binding enhancing) activity between FKBP12 and mTOR compared with rapamycin (1), in words” value is “relatively weaker activities”; the EC50 stood at 45 nM. Also, the Foci intensity (conc 9.53674e-5 uM) is 0.02068 and 0.01364 and 0.008639. Also, the Foci intensity (conc 0.000190735 uM) is 0.01744 and 0.007135 and 0.0155. In addition, the Foci intensity (conc 0.00038147 uM) is 0.04148 and 0.01907 and 0.0147. For the same compound, the Foci intensity (conc 0.000762939 uM) was 0.01977 and 0.01076 and 0.01197. Besides, the Foci intensity (conc 0.00152588 uM) was 0.06388 and 0.02909 and 0.00714. Besides, the Foci intensity (conc 0.00305176 uM) is 0.01847 and 0.0327 and 0.01128. The Foci intensity (conc 0.00610352 uM) is 0.01966 and 0.01473 and 0.01204. Further, where the note is “conc 0.012207 uM”, the Foci intensity is 0.01622 and 0.03454 and 0.02495. Further, for the setting “conc 0.0244141 uM”, the Foci intensity is 0.05679 and 0.05606 and 0.04583. The Foci intensity (conc 0.0488281 uM) was 0.1221 and 0.237 and 0.2378. The Foci intensity (conc 0.0976562 uM) was 0.306 and 0.2748 and 0.2045. Further, the Foci intensity (conc 0.195312 uM) is 0.3211 and 0.3269 and 0.2723. In addition, the Foci intensity (conc 0.390625 uM) is 0.3599 and 0.2761 and 0.3358. Besides, the Foci intensity (conc 0.78125 uM) was 0.3175 and 0.3752 and 0.289. Moreover, the Foci intensity (conc 1.5625 uM) is 0.3697 and 0.3114 and 0.3338. For the same compound, the Foci intensity (conc 3.125 uM) was 0.3541 and 0.2997 and 0.3309. Where the note is “conc 6.25 uM”, the Foci intensity was 0.3255 and 0.2796 and 0.2953. Also, the Foci intensity (conc 12.5 uM) was 0.3157 and 0.354 and 0.2564. The Foci intensity (conc 25 uM) is 0.3263 and 0.3214 and 0.3499. For the same compound, the Foci intensity (conc 50 uM) is 0.3058 and 0.2791 and 0.2528.
Consider `CO[C@H]1C[C@@H]2CC[C@@H](C)[C@@](O)(O2)C(=O)C(=O)N2CCCC[C@H]2C(=O)O[C@H]([C@H](C)C[C@@H]2CC[C@@H](O)[C@H](OC)C2)CC(=O)[C@H](C)/C=C(\C)[C@@H](O)CC[C@H](C)/C=C/C=C/C=C/1C` [Compound 7], for which the “PPI-inducing (binding enhancing) activity between FKBP12 and mTOR compared with rapamycin (1), in words” value was “much less potent than 1”; the EC50 came to 320 nM. For the same compound, the Foci intensity (conc 9.53674e-5 uM) is 0.01546 and 0.009859 and 0.01479. Moreover, the Foci intensity (conc 0.000190735 uM) was 0.02291 and 0.01436 and 0.01269. The Foci intensity (conc 0.00038147 uM) was 0.01763 and 0.009567 and 0.009808. The Foci intensity (conc 0.000762939 uM) is 0.02965 and 0.01327 and 0.0132. For the same compound, where the note is “conc 0.00152588 uM”, the Foci intensity was 0.01988 and 0.005935 and 0.01208. Under “conc 0.00305176 uM”, the Foci intensity is 0.01996 and 0.02873 and 0.02267. In addition, the Foci intensity (conc 0.00610352 uM) was 0.009728 and 0.0229 and 0.03931. Moreover, the Foci intensity (conc 0.012207 uM) was 0.02585 and 0.06278 and 0.01094. For the same compound, the Foci intensity (conc 0.0244141 uM) is 0.02982 and 0.02323 and 0.02961. Further, under “conc 0.0488281 uM”, the Foci intensity was 0.03327 and 0.007263 and 0.02034. The Foci intensity (conc 0.0976562 uM) is 0.0343 and 0.0166 and 0.04409. Besides, the Foci intensity (conc 0.195312 uM) was 0.1225 and 0.05897 and 0.08613. For the same compound, the Foci intensity (conc 0.390625 uM) was 0.2002 and 0.2003 and 0.254. The Foci intensity (conc 0.78125 uM) was 0.2477 and 0.2297 and 0.3237. Further, the Foci intensity (conc 1.5625 uM) was 0.2891 and 0.3472 and 0.3016. Besides, the Foci intensity (conc 3.125 uM) was 0.3418 and 0.3544 and 0.3825. In addition, for the setting “conc 6.25 uM”, the Foci intensity was 0.285 and 0.273 and 0.328. For the same compound, for the setting “conc 12.5 uM”, the Foci intensity was 0.2778 and 0.3903 and 0.3448. The Foci intensity (conc 25 uM) is 0.3624 and 0.278 and 0.3289. Besides, the Foci intensity (conc 50 uM) was 0.2714 and 0.2974 and 0.3445.
`CO[C@@H]1/C=C/C=C/[C@@H](C)C[C@@H](C)C(=O)C[C@H](O)/C(C)=C/[C@@H](C)C(=O)C[C@@H]([C@H](C)C[C@@H]2CC[C@@H](O)[C@H](OC)C2)OC(=O)[C@@H]2CCCCN2C(=O)C(=O)[C@]2(O)O[C@@H](CC[C@H]2C)C1` [Compound 9]: the “PPI-inducing (binding enhancing) activity between FKBP12 and mTOR compared with rapamycin (1), in words” value was “relatively weaker activities”; the EC50 turned out to be 34 nM. In addition, under “conc 9.53674e-5 uM”, the Foci intensity was 0.01796 and 0.01734 and 0.0265. Besides, the Foci intensity (conc 0.000190735 uM) is 0.007038 and 0.008763 and 0.03506. Moreover, the Foci intensity (conc 0.00038147 uM) was 0.01287 and 0.02231 and 0.02044. Moreover, the Foci intensity (conc 0.000762939 uM) was 0.01526 and 0.03513 and 0.01148. Besides, for the setting “conc 0.00152588 uM”, the Foci intensity was 0.01977 and 0.009687 and 0.01946. For the same compound, where the note is “conc 0.00305176 uM”, the Foci intensity is 0.01393 and 0.02436 and 0.01751. Further, the Foci intensity (conc 0.00610352 uM) is 0.02196 and 0.02086 and 0.01607. In addition, the Foci intensity (conc 0.012207 uM) was 0.03665 and 0.02818 and 0.0403. Besides, the Foci intensity (conc 0.0244141 uM) is 0.1568 and 0.166 and 0.1355. Also, where the note is “conc 0.0488281 uM”, the Foci intensity was 0.2266 and 0.245 and 0.2523. For the same compound, where the note is “conc 0.0976562 uM”, the Foci intensity is 0.282 and 0.2404 and 0.219. Besides, the Foci intensity (conc 0.195312 uM) was 0.2721 and 0.2692 and 0.2013. The Foci intensity (conc 0.390625 uM) is 0.3169 and 0.313 and 0.309. Besides, the Foci intensity (conc 0.78125 uM) is 0.3134 and 0.2906 and 0.2987. For the setting “conc 1.5625 uM”, the Foci intensity is 0.3134 and 0.3737 and 0.3166. Besides, the Foci intensity (conc 3.125 uM) is 0.3491 and 0.3731 and 0.3792. In addition, the Foci intensity (conc 6.25 uM) is 0.279 and 0.3226 and 0.3138. Moreover, the Foci intensity (conc 12.5 uM) was 0.3645 and 0.3352 and 0.3161. For the same compound, where the note is “conc 25 uM”, the Foci intensity was 0.2867 and 0.3845 and 0.2898. For the setting “conc 50 uM”, the Foci intensity was 0.3496 and 0.3134 and 0.3176.

(Values after paper PMC7419507, “In vitro Cas9-assisted editing of modular polyketide synthase genes to produce desired natural product derivatives” (Nature Communications, 2020).)
